According to patent EP1077966B1, “BIPHENYL SULFONYL ARYL CARBOXYLIC ACIDS USEFUL IN THE TREATMENT OF INSULIN RESISTANCE AND HYPERGLYCEMIA” (Wyeth, priority 1998, dated 1999):
Marks after values point to notes of the source that are not given here.

How the values were obtained:
[1] = molecular target: T1, Human recombinant PTP1B (Homo sapiens, UniProt P18031); experiment: Inhibition of tri-phosphorylated insulin receptor dodecaphosphopeptide dephosphorylation by hPTP1B (malachite green-ammonium molybdate phosphate detection); format: biochemical; conditions: substrate phosphotyrosyl dodecapeptide […] (insulin receptor 1142-1153), 37°C, 30 min, pH 7.4
T1 construct: made in house
T1 sequence (P18031 1-435): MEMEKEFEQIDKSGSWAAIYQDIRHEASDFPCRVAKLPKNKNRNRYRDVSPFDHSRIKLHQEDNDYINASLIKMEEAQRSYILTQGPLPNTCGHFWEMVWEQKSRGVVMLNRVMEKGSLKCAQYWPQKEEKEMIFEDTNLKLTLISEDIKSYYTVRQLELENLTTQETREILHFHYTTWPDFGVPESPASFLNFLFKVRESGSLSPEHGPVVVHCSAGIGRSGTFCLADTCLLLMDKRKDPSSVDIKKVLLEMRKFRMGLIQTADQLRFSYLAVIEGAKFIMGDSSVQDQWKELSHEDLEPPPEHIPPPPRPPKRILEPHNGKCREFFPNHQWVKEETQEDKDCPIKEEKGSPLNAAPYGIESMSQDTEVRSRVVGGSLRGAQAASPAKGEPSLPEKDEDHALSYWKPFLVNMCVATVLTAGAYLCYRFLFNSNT

[2] = test system: diabetic (ob/ob) mice; experiment: Blood glucose lowering activity in diabetic (ob/ob) mice; format: in vivo; conditions: Dose 25 mg/Kg, plasma glucose relative to vehicle treated mice, statistically (p < 0.05) significant
Text: The procedures used and results obtained are briefly described below.
The non-insulin dependent diabetic (NIDDM) syndrome can be typically characterizes by obesity, hyperglycemia, abnormal insulin secretion, hyperinsulinemia and insulin resistance.
In each test procedure, mice [Male or female ob/ob (C57 B1/6J) and their lean litermates (ob/+ or +/+, Jackson Laboratories) ages 2 to 5 months (10 to 65 g)] of a similar age were randomized according to body weight into 4 groups of 10 mice. The mice were housed 5 per cage and are maintained on normal rodent chow with water ad libitum. Mice received test compound daily by gavage (suspended in 0.5 ml of 0.5% methyl cellulose); dissolved in the drinking water; or admixed in the diet. The dose of compounds given ranges from 2.5 to 200 mg/kg body weight/day. The dose is calculated based on the fed weekly body weight and is expressed as active moiety. […] Control mice received vehicle only.
On the morning of Day 4, 7 or 14 two drops of blood (approximetly 50 ul) were collected into sodium fluoride containing tubes either from the tail vein or after decapitation. […] The plasma was isolated by centrifugation and the concentration of glucose is measured enzymatically on an Abbott V.P. Analyzer.
For each mouse, the percentage change in plasma glucose on Day 4, 7 or 14 is calculated relative to the mean plasma glucose of the vehicle treated mice. […]

| SMILES | IC50 [1] | % Change Glucose from Vehicle [2] |
| --- | --- | --- |
| O=C(O)c1ccc(S(=O)(=O)Oc2ccc(-c3ccc(-c4c(C(=O)c5ccccc5)oc5ccccc45)cc3)cc2C2CCCC2)cc1O [Example 9, 4-[4'-(2-Benzoyl-benzofuran-3-yl)-3-cyclopentyl-biphenyl-4-yloxysulfonyl]-2-hydroxy-benzoic acid] | 40 nM | – |
| O=C(O)c1ccc(S(=O)(=O)Oc2ccc(-c3ccc(-c4c(Cc5ccccc5)oc5ccccc45)cc3)cc2)cc1 [Example 3, 4-[4'-(2-Benzyl-benzofuran-3-yl)-biphenyl-4-yloxysulfonyl]-benzoic acid] | 75 nM | – |
| O=C(O)c1ccc(S(=O)(=O)Oc2ccc(-c3ccc(-c4c(C(=O)c5ccccc5)oc5ccccc45)cc3)cc2[N+](=O)[O-])cc1O [Example 8, 4-[4'-(2-Benzoyl-benzofuran-3-yl)-3-nitro-biphenyl-4-yloxysulfonyl]-2-hydroxy-benzoic acid] | 178 nM | – |
| O=C(O)c1cccc(S(=O)(=O)Oc2ccc(-c3ccc(-c4c(Cc5ccccc5)oc5ccccc45)cc3)cc2)c1 [Example 4, 3-[4'-(2-Benzyl-benzofuran-3-yl)-biphenyl-4-yloxysulfonyl]-benzoic acid] | 106 nM | – |
| O=C(O)c1ccc(S(=O)(=O)Oc2ccc(-c3ccc(-c4coc5ccccc45)cc3)cc2)cc1O [Example 5] | 354 nM | – |

Continued, in another order:

| IC50 [1] | SMILES | % Change Glucose from Vehicle [2] |
| --- | --- | --- |
| 24 nM | O=C(O)c1ccc(S(=O)(=O)Oc2ccc(-c3ccc(-c4c(Cc5ccccc5)sc5ccccc45)cc3)cc2Br)cc1O [Example 12, 4-[4'-(2-Benzyl-benzo[b]thiophen-3-yl)-3-bromo-biphenyl-4-yloxysulfonyl]-2-hydroxy-benzoic acid] | – |
| 34 nM | Cc1cc(-c2ccc(-c3c(Cc4ccccc4)oc4ccccc34)cc2)cc(C)c1OS(=O)(=O)c1ccc(C(=O)O)c(O)c1 [Example 6, 4-[4'-(2-Benzyl-benzofuran-3-yl)-3,5-dimethyl-biphenyl-4-yloxysulfonyl]-2-hydroxy-benzoic acid] | – |
| 28 nM | O=C(O)c1ccc(S(=O)(=O)Oc2ccc(-c3ccc(-c4c(Cc5ccccc5)sc5ccccc45)cc3)cc2)cc1O [Example 11, 4-[4'-(2-Benzyl-benzo[b]thiophen-3-yl)-biphenyl-4-yloxysulfonyl]-2-hydroxy-benzoic acid] | – |
| 30 nM | O=C(O)c1ccc(S(=O)(=O)Oc2c(Br)cc(-c3ccc(-c4c(Cc5ccccc5)sc5ccccc45)cc3)cc2Br)cc1O [Example 13, 4-[4'-(2-Benzyl-benzo[b]thiophen-3-yl)-3,5-dibromo-biphenyl-4-yloxysulfonyl]-2-hydroxy-benzoic acid] | -24.6^a % |
| 32 nM | Cc1sc(Cc2ccccc2)c(-c2ccc(-c3ccc(OS(=O)(=O)c4ccc(C(=O)O)c(O)c4)cc3)cc2)c1C [Example 10, 4-[4'-(2-Benzyl-4,5-dimethyl-thiophen-3-yl)-biphenyl-4-yloxysulfonyl]-2-hydroxy-benzoic acid] | – |
| 39 nM | O=C(O)c1ccc(S(=O)(=O)Oc2ccc(-c3ccc(-c4c(Cc5ccccc5)oc5ccccc45)cc3)cc2)cc1O [Example 1, 4-[4'-(2-Benzyl-benzofuran-3-yl)-biphenyl-4-yloxysulfonyl]-2-hydroxy-benzoic acid] | – |
| 26 nM | O=C(O)c1cc(S(=O)(=O)Oc2ccc(-c3ccc(-c4c(Cc5ccccc5)oc5ccccc45)cc3)cc2)ccc1O [Example 2, 5-[4'-(2-Benzyl-benzofuran-3-yl)-biphenyl-4-yloxysulfonyl]-2-hydroxy-benzoic acid] | – |
| 29 nM | O=C(O)c1ccc(S(=O)(=O)Oc2ccc(-c3ccc(-c4c(Cc5ccccc5)oc5ccccc45)cc3)cc2[N+](=O)[O-])cc1O [Example 7, 4-[4'-(2-Benzyl-benzofuran-3-yl)-3-nitro-biphenyl-4-yloxysulfonyl]-2-hydroxy-benzoic acid] | – |
